Columns and labels:
DGKa = DGKa (Homo sapiens (Human), UniProt P23743); assay: DGK ADP-Glo Kinase Assay (DGKa); type: biochemical; conditions: 10 nM DGKa, 15 uM ATP
Procedure: (§1) Luminescence was recorded using an Tecan SPARK microplate reader.

DGKz = DGKz (Homo sapiens (Human), UniProt Q13574); assay: DGK ADP-Glo Kinase Assay (DGKz); type: biochemical; conditions: 5 nM DGKz, 15 uM ATP
Procedure: as §1

Sequence of DGKa (P23743 whole entry): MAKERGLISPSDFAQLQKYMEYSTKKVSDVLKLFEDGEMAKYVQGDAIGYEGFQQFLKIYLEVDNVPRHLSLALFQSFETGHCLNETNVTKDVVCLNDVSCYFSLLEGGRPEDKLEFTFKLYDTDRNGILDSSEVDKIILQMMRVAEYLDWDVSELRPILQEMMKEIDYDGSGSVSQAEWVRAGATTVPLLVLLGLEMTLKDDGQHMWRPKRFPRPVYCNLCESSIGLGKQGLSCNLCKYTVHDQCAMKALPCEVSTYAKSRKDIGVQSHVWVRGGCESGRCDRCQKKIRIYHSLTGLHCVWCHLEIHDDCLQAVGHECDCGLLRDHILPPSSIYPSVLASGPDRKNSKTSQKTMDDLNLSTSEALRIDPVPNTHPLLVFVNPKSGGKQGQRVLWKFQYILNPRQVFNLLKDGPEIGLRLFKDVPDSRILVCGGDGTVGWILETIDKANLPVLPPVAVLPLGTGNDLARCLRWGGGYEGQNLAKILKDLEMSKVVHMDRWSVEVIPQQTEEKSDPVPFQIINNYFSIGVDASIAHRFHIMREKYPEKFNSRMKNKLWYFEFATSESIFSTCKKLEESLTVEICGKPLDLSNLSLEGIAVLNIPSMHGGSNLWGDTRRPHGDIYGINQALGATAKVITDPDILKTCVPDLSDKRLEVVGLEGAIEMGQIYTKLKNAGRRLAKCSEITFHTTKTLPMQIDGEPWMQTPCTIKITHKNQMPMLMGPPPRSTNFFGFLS
Sequence of DGKz (Q13574 whole entry): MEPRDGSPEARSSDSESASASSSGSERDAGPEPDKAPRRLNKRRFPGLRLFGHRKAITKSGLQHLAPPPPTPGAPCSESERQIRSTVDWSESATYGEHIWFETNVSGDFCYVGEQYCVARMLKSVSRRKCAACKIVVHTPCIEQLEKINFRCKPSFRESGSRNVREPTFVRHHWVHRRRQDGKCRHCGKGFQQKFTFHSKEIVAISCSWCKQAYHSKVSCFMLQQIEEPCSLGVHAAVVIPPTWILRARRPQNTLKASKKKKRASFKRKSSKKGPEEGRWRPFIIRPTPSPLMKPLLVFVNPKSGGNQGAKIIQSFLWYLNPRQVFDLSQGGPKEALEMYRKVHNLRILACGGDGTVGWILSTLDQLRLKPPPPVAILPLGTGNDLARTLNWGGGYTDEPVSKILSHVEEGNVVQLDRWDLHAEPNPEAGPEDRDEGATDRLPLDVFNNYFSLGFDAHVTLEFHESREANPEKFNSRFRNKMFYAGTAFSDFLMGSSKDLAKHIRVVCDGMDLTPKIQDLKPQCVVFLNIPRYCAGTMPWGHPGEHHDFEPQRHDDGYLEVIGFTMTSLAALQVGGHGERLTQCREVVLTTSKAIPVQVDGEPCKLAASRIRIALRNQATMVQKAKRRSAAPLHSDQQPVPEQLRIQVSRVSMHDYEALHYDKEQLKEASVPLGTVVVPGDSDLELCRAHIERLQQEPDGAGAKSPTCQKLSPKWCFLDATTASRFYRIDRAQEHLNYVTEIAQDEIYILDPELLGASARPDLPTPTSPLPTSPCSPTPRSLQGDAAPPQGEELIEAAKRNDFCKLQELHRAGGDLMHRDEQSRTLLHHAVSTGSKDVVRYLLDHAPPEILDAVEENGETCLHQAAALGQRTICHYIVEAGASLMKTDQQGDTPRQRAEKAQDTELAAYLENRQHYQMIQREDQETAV

SMILES | IC50 (DGKa) [µM] | IC50 (DGKz) [µM]
CC[C@H]1CN([C@@H](CC)c2ccc(C(F)(F)F)cc2)[C@H](CC)CN1c1nc2nncn2c2ccc(C#N)nc12 (single isomer, unassigned) [Compound 34] | < 0.1 | < 0.1
CC[C@H]1CN([C@H](CC)c2ccc(C(F)(F)F)cc2)[C@H](CC)CN1c1nc2nncn2c2ccc(C#N)nc12 (single isomer, unassigned) [Compound 35] | < 0.1 | 0.1 to 1
CC[C@H]1CN([C@@H](CC)c2ccc(SC(F)(F)F)cc2)[C@H](CC)CN1c1nc2nncn2c2ccc(C#N)nc12 (single isomer, unassigned) [Compound 69] | < 0.1 | 0.1 to 1
CC[C@H]1CN(C(c2ccc(S(F)(F)(F)(F)F)cc2)C2CC2)[C@H](CC)CN1c1nc(=O)n(C)c2ccc(C#N)nc12 (single isomer, unassigned) [Compound 117] | < 0.1 | 0.1 to 1
CC[C@H]1C[C@H](Oc2ccc(OC(F)(F)F)cc2)CCN1c1nc(=O)n(C)c2ccc(C#N)nc12 (stereo in doubt) [Compound 18] | < 0.1 | 0.1 to 1
CC[C@H]1CN([C@H](C)c2ccc(SC(F)(F)F)cc2)[C@H](CC)CN1c1nc2nncn2c2ccc(C#N)nc12 (stereo in doubt) [Compound 52] | < 0.1 | 0.1 to 1
CC[C@@H]1CN(c2nc(=O)n(C)c3ccc(C#N)nc23)[C@@H](C)CN1[C@@H](CC)c1ccc(S(F)(F)(F)(F)F)cc1 (stereo in doubt) [Compound 60] | < 0.1 | < 0.1
CC[C@@H]1CN(c2nc(=O)n(C)c3ccc(C#N)nc23)[C@@H](C)CN1[C@H](CC)c1ccc(S(F)(F)(F)(F)F)cc1 (stereo in doubt) [Compound 61] | 0.1 to 1 | 0.1 to 1
CC[C@H]1CN([C@@H](C)c2ccc(S(F)(F)(F)(F)F)cc2)[C@H](CC)CN1c1nc(=O)n(C)c2ccc(C#N)nc12 (stereo in doubt) [Compound 62] | < 0.1 | 0.1 to 1
CC[C@@H]1CN(c2nc3nncn3c3ccc(C#N)nc23)[C@@H](C)CN1[C@H](CC)c1ccc(SC(F)(F)F)cc1 (stereo in doubt) [Compound 71] | < 0.1 | 0.1 to 1
CC[C@@H]1C[C@@]2(CCN1c1nc(=O)n(C)c3ccc(C#N)nc13)CC(c1ccc(OC(F)(F)F)cc1)=NO2 (stereo in doubt) [Compound 75] | 0.1 to 1 | 0.1 to 1
CC[C@H]1CN([C@H](CC)c2ccc(S(F)(F)(F)(F)F)cc2)[C@H](CC)CN1c1nc(=O)n2c3c(cc(C#N)nc13)OCC2 (stereo in doubt) [Compound 79] | 0.1 to 1 | 0.1 to 1
CC[C@@H]1CN(c2nc3nncn3c3ccc(C#N)nc23)[C@@H](C)CN1[C@@H](CC)c1ccc(S(F)(F)(F)(F)F)cc1 (stereo in doubt) [Compound 80] | < 0.1 | < 0.1
CC[C@@H]1CN(c2nc3nncn3c3ccc(C#N)nc23)[C@@H](C)CN1[C@H](CC)c1ccc(C(F)(F)F)cc1 (stereo in doubt) [Compound 82] | < 0.1 | 0.1 to 1
CC[C@H]1CN([C@@H](CC)c2ccc(S(F)(F)(F)(F)F)cc2)[C@H](CC)CN1c1nc(=O)n2c3c(cc(C#N)nc13)OCC2 (stereo in doubt) [Compound 83] | < 0.1 | 0.1 to 1
CC[C@H]1CN([C@@H](C)c2ccc(S(F)(F)(F)(F)F)cc2)[C@H](CC)CN1c1nc2nncn2c2ccc(C#N)nc12 (stereo in doubt) [Compound 88] | < 0.1 | < 0.1
CC[C@H]1CN([C@H](C)c2ccc(S(F)(F)(F)(F)F)cc2)[C@H](CC)CN1c1nc2nncn2c2ccc(C#N)nc12 (stereo in doubt) [Compound 89] | < 0.1 | 0.1 to 1
CC[C@H]1CN([C@@H](CC)c2cccc(C(F)(F)F)c2)[C@H](CC)CN1c1nc2nncn2c2ccc(C#N)nc12 (stereo in doubt) [Compound 105] | < 0.1 | < 0.1
CC[C@H]1CN([C@H](CC)c2cccc(C(F)(F)F)c2)[C@H](CC)CN1c1nc2nncn2c2ccc(C#N)nc12 (stereo in doubt) [Compound 106] | < 0.1 | 0.1 to 1
CC[C@H]1CN([C@H](CC)c2ccc(C(F)(F)F)nc2)[C@H](CC)CN1c1nc2nncn2c2ccc(C#N)nc12 (stereo in doubt) [Compound 112] | < 0.1 | 0.1 to 1
CC[C@H]1CN([C@H](CC)c2ccc(OC)cc2F)[C@H](CC)CN1c1nc2nncn2c2ccc(C#N)nc12 (stereo in doubt) [Compound 116] | < 0.1 | 0.1 to 1
Cc1ccc2oc(C3CCN(c4nc(=O)n(C)c5ccc(C#N)nc45)CC3)nc2c1 [Compound 20] | > 1 | > 1
CC[C@H]1CN([C@H](CC)c2ccc(S(F)(F)(F)(F)F)cc2)[C@H](CC)CN1c1nc(=O)n(C)c2ccc(C#N)nc12 [Compound 29] | < 0.1 | < 0.1
Cn1c(=O)nc(N2CCC3(CC2)CC(c2ccc(OC(F)(F)F)cc2)=NO3)c2nc(C#N)ccc21 [Compound 31] | < 0.1 | < 0.1
Cc1ccc2oc(C3CCN(c4nc(=O)n(C)c5cc(O[C@@H]6CCOC6)c(Cl)cc45)CC3)nc2c1 [Compound 32] | < 0.1 | > 1

Results, then the molecule that gave them:

IC50 (DGKa) [µM] | IC50 (DGKz) [µM] | SMILES
< 0.1 | 0.1 to 1 | CC[C@H]1CN([C@@H](CC)c2ccc(SC(F)(F)F)cc2)[C@H](CC)CN1c1nc2nncn2c2ccc(C#N)nc12 (single isomer, unassigned) [Compound 68]
< 0.1 | < 0.1 | CC[C@@H]1CN(c2nc3nncn3c3ccc(C#N)nc23)[C@@H](C)CN1[C@@H](CC)c1ccc(C(F)(F)F)cc1 (single isomer, unassigned) [Compound 81]
< 0.1 | < 0.1 | CC[C@H]1CN([C@@H](CC)c2ccc(OC(F)(F)F)cc2)[C@H](CC)CN1c1nc2nncn2c2ccc(C#N)nc12 (single isomer, unassigned) [Compound 100]
< 0.1 | < 0.1 | CC[C@H]1CN([C@@H](CC)c2ccc(C(F)(F)F)cc2)[C@H](CC)CN1c1nc2nncn2c2ccc(C#N)nc12 (single isomer, unassigned) [Compound 109]
< 0.1 | 0.1 to 1 | CC[C@H]1CN([C@H](CC)c2ccc(C(F)(F)F)cc2)[C@H](CC)CN1c1nc2nncn2c2ccc(C#N)nc12 (single isomer, unassigned) [Compound 110]
< 0.1 | 0.1 to 1 | CC[C@H]1CN(C(c2ccc(S(F)(F)(F)(F)F)cc2)C2CC2)[C@H](CC)CN1c1nc(=O)n(C)c2ccc(C#N)nc12 (single isomer, unassigned) [Compound 118]
< 0.1 | < 0.1 | CC[C@H]1CN([C@H](CC)c2cccc(S(F)(F)(F)(F)F)c2)[C@H](CC)CN1c1nc(=O)n(C)c2ccc(C#N)nc12 (stereo in doubt) [Compound 55]
0.1 to 1 | 0.1 to 1 | CC[C@H]1CN([C@H](CC)c2cccc(S(F)(F)(F)(F)F)c2)[C@H](CC)CN1c1nc(=O)n(C)c2ccc(C#N)nc12 (stereo in doubt) [Compound 56]
< 0.1 | 0.1 to 1 | CC[C@H]1CN([C@H](C)c2ccc(S(F)(F)(F)(F)F)cc2)[C@H](CC)CN1c1nc(=O)n(C)c2ccc(C#N)nc12 (stereo in doubt) [Compound 63]
< 0.1 | < 0.1 | CC[C@@H]1CN(c2nc3nncn3c3ccc(C#N)nc23)[C@@H](C)CN1[C@@H](CC)c1ccc(SC(F)(F)F)cc1 (stereo in doubt) [Compound 66]
< 0.1 | < 0.1 | CC[C@H]1CN([C@H](c2ccc(SC(F)(F)F)cc2)c2nc(C3CC3)no2)[C@H](CC)CN1c1nc(=O)n(C)c2ccc(C#N)nc12 (stereo in doubt) [Compound 70]
< 0.1 | > 1 | CC[C@H]1C[C@]2(CCN1c1nc(=O)n(C)c3ccc(C#N)nc13)CC(c1ccc(OC(F)(F)F)cc1)=NO2 (stereo in doubt) [Compound 74]
< 0.1 | < 0.1 | CC[C@H]1CN([C@@H](CC)c2ccc(S(F)(F)(F)(F)F)cc2)[C@H](CC)CN1c1nc2nncn2c2ccc(C#N)nc12 (stereo in doubt) [Compound 86]
< 0.1 | 0.1 to 1 | CC[C@@H]1CN(c2nc3nncn3c3ccc(C#N)nc23)[C@@H](C)CN1[C@H](CC)c1ccc(S(F)(F)(F)(F)F)cc1 (stereo in doubt) [Compound 90]
< 0.1 | 0.1 to 1 | CC[C@H]1CN([C@H](CC)c2ccc(OC(F)(F)F)cc2)[C@H](CC)CN1c1nc2nncn2c2ccc(C#N)nc12 (stereo in doubt) [Compound 101]
< 0.1 | < 0.1 | CC[C@H]1CN([C@@H](CC)c2ccc(C(F)(F)F)nc2)[C@H](CC)CN1c1nc2nncn2c2ccc(C#N)nc12 (stereo in doubt) [Compound 111]
< 0.1 | < 0.1 | CC[C@H]1CN([C@@H](CC)c2ccc(OC)cc2F)[C@H](CC)CN1c1nc2nncn2c2ccc(C#N)nc12 (stereo in doubt) [Compound 115]
0.1 to 1 | 0.1 to 1 | Cn1c(=O)nc(N2CCC3(CCN(c4ccc(OC(F)(F)F)cc4)C3)CC2)c2nc(C#N)ccc21 [Compound 8]
> 1 | > 1 | Cc1ccccc1-n1cc(C2CCN(c3nc(=O)n(C)c4ccc(C#N)nc34)CC2)cn1 [Compound 12]
< 0.1 | > 1 | Cn1c(=O)c(C(N)=O)c(N2CCC3(CN(c4ccc(OC(F)(F)F)cc4)C3)C2)c2nc(C#N)ccc21 [Compound 15]
0.1 to 1 | < 0.1 | CC[C@@H]1C[C@H](Oc2ccc(OC(F)(F)F)cc2)CCN1c1nc(=O)n(C)c2ccc(C#N)nc12 [Compound 16]
< 0.1 | > 1 | Cc1ccc2oc(C3CCN(c4nc(=O)n(C)c5ccc6nncn6c45)CC3)nc2c1 [Compound 22]
< 0.1 | < 0.1 | CC[C@H]1CN([C@@H](CC)c2ccc(S(F)(F)(F)(F)F)cc2)[C@H](CC)CN1c1nc(=O)n(C)c2ccc(C#N)nc12 [Compound 28]

Reference: patent US20250215014A1, “KINASE INHIBITORS, PREPARATION METHODS AND USES THEREOF” (InventisBio Co., Ltd., priority 2022, published 2025)
